# Patent US20060052435A1, “Selective dopamin d3 receptor agonists for the treatment of sexual dysfunction” (priority 2001, published 2006)
# How the values were obtained:
# telemetry rats = assay: rat telemetry model of erection (intracavernosal pressure); assay type: in vivo; details: for proerectile effect (words): male models of erection / telemetry rats, agonist alone; for agonist-induced erectile activity with concomitant L-741,626 and SB-277,011: L-741,626 2 mg/kg s.c. and SB-277,011 3 mg/kg s.c.
# Description: Erectile responses were recorded by measuring intracavernosal pressure and/or clitoral/vaginal blood flow using surgically implanted telemetric device. The specific details of the surgical procedures, data acquisition and analysis can be found in detail in Bernabe J, Rampin O, Sachs B D, Giuliano F. Intracavernous pressure during erection in rats: an integrative approach based on telemetric recording. Am. J. Physiol.
# anaesthetised dog [1] = assay: haemodynamics in the anaesthetised dog; assay type: in vivo
# Description: Male beagles were anaesthetised with a mixture of chloralose and urethane, following pre-medication with piritramide. They were instrumented to measure arterial blood pressure, cardiac output, E.C.G., pudendal artery blood flow (PAF) and intra-cavernosal pressure (ICP). Other parameters such as heart rate and vascular resistance were derived from the primary signals. Following a period of equilibration, a series of control readings were taken and the effects of pelvic nerve stimulation at 4 and 8 Hz, on ICP and PAF were measured. Compounds were administered subcutaneously in the dorsal neck region via an implanted catheter, in the dose range of 0.3-3000 μg(base)/kg. Following each dose, parameters were measured at fixed intervals for 30 min.
# Results were analysed as percent change from the final control values for each dog and mean values for three dogs were used.
# anaesthetised dog [2] = assay: emesis in the chloralose anaesthetised dog; details: male, beagle, dog, in vivo, sc, 30 min
# Description: Male beagles, 11-17 kg were used. Following an overnight fast, animals were anaesthetised with chloralose (80 mg kg^−1 i.v.), having first been injected with an anaesthetic dose of the short acting barbiturate, thiopentone (15 mg kg^−1 i.v.). Following tracheal intubation, which ensured a patent airway even during the expulsion phase of the emetic response, the left femoral vein and artery were cannulated for further administration of anaesthetic and for recording haemodynamic parameters, respectively. […] During the stabilisation period, respiratory rate was monitored to ensure that central respiratory centres were not deeply depressed, since the CNS efferent component of the emetic reflex is essentially conveyed via respiratory motor neurones. […] Animals were observed closely for 30 min post-dose and motor (e.g. swallowing, eye blinking, limb movements, changes in respiratory rate and depth, retching and vomiting) and haemodynamic changes noted and recorded. […] At the end of an experiment animals were sacrificed with an overdose of pentobarbitone.
# Observations made on individual animals were used to determine the percentage of animals that retched when injected with a particular dose level of test compound. Percentage of animals retching was then used to construct a dose response curve and an ED50 value determined from the appropriate curve.
# [3] = target: human dopamine D2 long receptor (Homo sapiens, UniProt P14416)
# human dopamine D2 long receptor, sequence (P14416 whole entry): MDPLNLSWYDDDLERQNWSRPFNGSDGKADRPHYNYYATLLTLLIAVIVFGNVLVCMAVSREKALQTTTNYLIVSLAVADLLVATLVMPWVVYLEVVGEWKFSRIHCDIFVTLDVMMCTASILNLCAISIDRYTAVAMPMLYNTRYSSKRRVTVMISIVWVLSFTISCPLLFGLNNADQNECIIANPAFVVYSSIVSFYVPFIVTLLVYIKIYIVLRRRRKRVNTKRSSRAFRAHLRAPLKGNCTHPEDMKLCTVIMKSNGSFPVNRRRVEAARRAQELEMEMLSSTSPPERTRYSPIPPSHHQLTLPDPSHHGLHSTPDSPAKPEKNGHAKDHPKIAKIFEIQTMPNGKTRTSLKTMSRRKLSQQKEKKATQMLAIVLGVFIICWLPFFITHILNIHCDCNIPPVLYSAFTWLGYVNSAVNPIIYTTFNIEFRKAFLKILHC
# [4] = target: human recombinant D2short (hD2s) receptors (Homo sapiens, UniProt P14416); assay: inhibition of binding of [3H]-spiperone; details: n = 3-11
# human recombinant D2short (hD2s) receptors, sequence (P14416 1-414 isoform P14416-2): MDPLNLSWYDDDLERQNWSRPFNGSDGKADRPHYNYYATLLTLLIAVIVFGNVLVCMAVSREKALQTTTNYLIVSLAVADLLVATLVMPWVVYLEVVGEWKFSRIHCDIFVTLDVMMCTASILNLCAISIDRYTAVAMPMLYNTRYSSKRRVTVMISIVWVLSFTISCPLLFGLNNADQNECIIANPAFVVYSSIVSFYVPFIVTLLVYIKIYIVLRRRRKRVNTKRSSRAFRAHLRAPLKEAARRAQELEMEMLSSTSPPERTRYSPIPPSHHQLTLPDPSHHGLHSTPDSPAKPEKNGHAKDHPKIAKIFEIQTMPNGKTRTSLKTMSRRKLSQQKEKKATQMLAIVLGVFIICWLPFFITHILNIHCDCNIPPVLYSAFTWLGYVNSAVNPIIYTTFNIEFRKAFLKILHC
# ferrets = assay: 7-OH-DPAT-induced emesis in the ferret; assay type: in vivo; details: for Antagonist potency ED100 versus 7-OH-DPAT-induced emesis: s.c., minimum dose completely inhibiting emesis in all animals, n = 3
# [5] = unbound plasma and whole brain concentrations in anaesthetised ferrets; details: s.c. dosing at the ED100 dose, n = 1
# [6] = target: human recombinant D3 (hD3) receptors (Homo sapiens, UniProt P35462, G9S); assay: inhibition of binding of [3H]-R(+)-7-OH-DPAT; details: n = 3-11
# human recombinant D3 (hD3) receptors, sequence (P35462 whole entry G9S): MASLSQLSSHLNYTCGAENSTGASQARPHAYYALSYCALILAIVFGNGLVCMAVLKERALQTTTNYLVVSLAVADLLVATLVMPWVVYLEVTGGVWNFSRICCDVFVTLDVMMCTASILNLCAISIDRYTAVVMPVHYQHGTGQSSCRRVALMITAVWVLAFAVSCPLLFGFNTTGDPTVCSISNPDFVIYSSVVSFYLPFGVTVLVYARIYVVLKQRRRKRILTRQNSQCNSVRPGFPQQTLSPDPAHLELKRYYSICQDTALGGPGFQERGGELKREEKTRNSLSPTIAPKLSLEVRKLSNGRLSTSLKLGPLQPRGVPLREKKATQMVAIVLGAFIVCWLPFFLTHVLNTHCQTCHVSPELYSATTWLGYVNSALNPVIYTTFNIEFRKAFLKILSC
# D1 receptor = D1 receptor (Homo sapiens, UniProt P21728); details: quoted abstract; cited from earlier work
# D1 receptor, sequence (P21728 whole entry): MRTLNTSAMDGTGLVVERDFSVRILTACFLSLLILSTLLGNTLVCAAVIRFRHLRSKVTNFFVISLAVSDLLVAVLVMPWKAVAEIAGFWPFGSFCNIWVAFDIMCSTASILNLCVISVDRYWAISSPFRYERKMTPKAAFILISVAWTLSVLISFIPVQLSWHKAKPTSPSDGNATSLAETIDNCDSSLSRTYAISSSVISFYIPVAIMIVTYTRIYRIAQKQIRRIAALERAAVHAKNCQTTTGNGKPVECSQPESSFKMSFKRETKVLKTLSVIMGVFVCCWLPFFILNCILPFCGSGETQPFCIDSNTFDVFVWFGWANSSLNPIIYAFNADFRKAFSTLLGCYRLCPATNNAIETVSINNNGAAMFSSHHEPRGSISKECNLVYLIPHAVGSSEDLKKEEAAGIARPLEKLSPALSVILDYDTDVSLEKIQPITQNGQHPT
# D2 [7] = target: T1, D2 (Homo sapiens, UniProt P14416); details: quoted abstract; cited from earlier work
# T1 sequence (P14416 whole entry): as the sequence (P14416 whole entry) above
# [8] = tested on: ovariectomized, partially hormone-repleted female rats; details: 50 ug/kg P.O., 15-30 min after dosing; from 22+/−8%; cited from earlier work
# male rhesus monkeys = details: 20 and 50 ug/kg P.O., evaluated for 4 hr; cited from earlier work
# dopamine D3 receptor = dopamine D3 receptor (Homo sapiens, UniProt P35462); assay: cell-based
# dopamine D3 receptor, sequence (P35462 whole entry, species assumed): as the sequence (P35462 whole entry G9S) above, with S9G counted along it
# New Zealand rabbits = assay: male and female anaesthetised rabbit, pelvic nerve stimulation; assay type: in vivo
# Description: 1.1.1 Male and Female Anaesthetised Rabbit Methodology
# Male and female New Zealand rabbits (˜2.5 kg) were pre-medicated with a combination of Medetomidine (Domitor®) 0.5 ml/kg i.m., and Ketamine (Vetalar®) 0.25 ml/kg i.m. whilst maintaining oxygen intake via a face mask. The rabbits were tracheotomised using a Portex™ uncuffed endotracheal tube 3 ID., connected to ventilator and maintained at a ventilation rate of 30-40 breaths per minute, with an approximate tidal volume of 18-20 ml, and a maximum airway pressure of 10 cm H2O. Anaesthesia was then switched to Isoflurane and ventilation continued with O2 at 2 l/min. The right marginal ear vein was cannulated using a 23 G or 24 G catheter, and Lactated Ringer solution perfused at 0.5 ml/min. The rabbit was maintained at 3% Isoflurane during invasive surgery, dropping to 2% for maintenance anaesthesia. The left jugular vein was exposed, isolated and then cannulated with a PVC catheter (17 G) for the infusion of drugs and compounds.
# The left groin area of the rabbit was shaved and a vertical incision was made approximately 5 cm in length along the thigh. The femoral vein and artery were exposed, isolated and then cannulated with a PVC catheter (17 G) for the infusion of drugs and compounds. Cannulation was repeated for the femoral artery, inserting the catheter to a depth of 10 cm to ensure that the catheter reached the abdominal aorta. This arterial catheter was linked to a Gould system to record blood pressure. Samples for blood gas analysis were also taken via the arterial catheter. Systolic and diastolic pressures were measured, and the mean arterial pressure calculated using the formula (diastolic×2+systolic)÷3. Heart rate was measured via the pulse oxymeter and Po-ne-mah data acquisition software system (Ponemah Physiology Platform, Gould Instrument Systems, Inc.).
# A ventral midline incision was made into the abdominal cavity. The incision was about 5 cm in length just above the pubis. The fat and muscle was bluntly dissected away to reveal the hypogastric nerve which runs down the body cavity. It was essential to keep close to the side curve of the pubis wall in order to avoid damaging the femoral vein and artery which lie above the pubis. The sciatic and pelvic nerves lie deeper and were located after further dissection on the dorsal side of the rabbit. Once the sciatic nerve is identified, the pelvic nerve was easily located. The term pelvic nerve is loosely applied; anatomy books on the subject fail to identify the nerves in sufficient detail. However, stimulation of the nerve causes an increase in vaginal and clitoral blood flow in females and in intracavernosal pressure and cavernosal blood flow in males, and innervation of the pelvic region. […]
# [9] = target: D3 receptors over D2 receptors (Homo sapiens, UniProt P35462); details: GTPγS assay; cited from earlier work
# D3 receptors over D2 receptors, sequence (P35462 whole entry, species assumed): as the sequence (P35462 whole entry G9S) above, with S9G counted along it
# D2 [10] = target: T1, D2; details: WO 93/23035; cited from earlier work
# D3 = D3 (Homo sapiens, UniProt P35462); details: WO 93/23035; cited from earlier work
# D3, sequence (P35462 whole entry, species assumed): as the sequence (P35462 whole entry G9S) above, with S9G counted along it
smiles,measurement,setting,value
CN1CCc2cccc3c2[C@H]1Cc1ccc(O)c(O)c1-3 [Apomorphine],proerectile effect (words),telemetry rats,induce/enhance proerectile effects
same,Geometric mean ED30 (fall in TPR),"anaesthetised dog [1]; dog, in vivo",11.7 μg/kg s.c.
same,cardiac output at the highest dose levels,"anaesthetised dog [1]; dog, in vivo",approximately doubled
same,effect on cardiac output and heart rate,anaesthetised dog [1]; s.c.,increases in cardiac output and heart rate
same,effect on total vascular resistance (TVR; TPR),"anaesthetised dog [1]; s.c., doses up to 3000 μg/kg",reduction in total vascular resistance
c1ccc(N2CCN(C[C@H]3CC[C@H](Nc4ncccn4)CC3)CC2)cc1 [trans-[4-[(4-Phenylpiperazin-1-yl)methyl]cyclohexyl]-pyrimidin-2-ylamine],"erectogenic effect in the presence of selective D2 receptor antagonist L-741,626","telemetry rats; L-741,626 2 mg/kg s.c.",abolished
same,proerectile effect (words),telemetry rats,produced erections
same,dose at which emesis was observed,anaesthetised dog [2],0.1 mg/kg
same,Geometric mean ED30 (fall in TPR),"anaesthetised dog [1]; dog, in vivo",44.6 μg/kg s.c.
same,cardiac output at the highest dose levels,"anaesthetised dog [1]; dog, in vivo",approximately doubled
same,effect on cardiac output and heart rate,"anaesthetised dog [1]; dog, in vivo, sc",increases in cardiac output and heart rate
same,EC50,[3],3.8 nM
CCCN1CCOC(c2ccc(F)c(O)c2)C1 (racemic) [Example 23a + 23b (racemate)],EC50,[3],> 5000 nM
CCCN(CCC)[C@@H]1CCc2cc(CS(=O)(=O)c3ccc(OC)cc3)ccc2C1 [GR218231],Affinity estimates (pKi ± s.e.m.) hD2s,[4],6.8 ± 0.44
same,animals in which emesis was blocked,ferrets; highest dose of 10 mg/kg,⅔
same,Antagonist potency ED100 versus 7-OH-DPAT-induced emesis,ferrets,>10 mg/kg
same,Brain conc^n,[5],1670 ng/g
same,Plu/Ki hD2s (ratio of unbound plasma concentration to binding affinity),[5],1.3
same,Plu/Ki hD3 (ratio of unbound plasma concentration to binding affinity),[5],95
"OC1(c2ccc(Cl)cc2)CCN(Cc2c[nH]c3ccccc23)CC1 [L-741,626]",Affinity estimates (pKi ± s.e.m.) hD3,[6],6.6 ± 0.24
same,Antagonist potency ED100 versus 7-OH-DPAT-induced emesis,ferrets,3 mg/kg
same,Brain conc^n,[5],250 ng/g
CN[C@@H]1Cc2cccc3[nH]c(=S)n(c23)C1 [PNU-142774E],Ki,D1 receptor,> 7000 nM
same,Ki,D2 [7],7 nM
same,lordosis/mounts ratio (L/M),[8],65+/−10%
same,"non-contact sexual behavior (erections, masturbation)",male rhesus monkeys,increase in sexual behavior
CCCN1CCOC(c2cc(O)cc(O)c2)C1 (racemic) [Example 15a + 15b (racemate)],EC50,[3],> 10000 nM
"CCCN1CCOC(c2ccc(O)c(C(N)=O)c2)C1 (stereo not shown) [Example 35, 2-Hydroxy-5-(4-propylmorpholin-2-yl)benzamide]",EC50,[3],~10500 nM
"CCCN1CCOC(c2cc(O)cc(O)c2)C1 (single isomer, unassigned) [Example 15a, R-5-(4-Propylmorpholin-2-yl)benzene-1,3-diol]",EC50,[3],1750 nM
CCCN1CCC[C@@H]2Cc3nc(N)ncc3C[C@H]21 [Quinelorane],EC50,[3],6.1 nM
"CCCN1CCOC(c2ccc(O)c(N)c2)C1 (stereo not shown) [Example 37, 2-Amino-4-(4-propylmorpholin-2-yl)phenol]",EC50,[3],> 100000 nM
"CCCNC1CCc2nc(N)sc2C1.Cl.Cl (stereo not shown) [Pramipexole, 2-amino-4,5,6,7-tetrahydro-6-propylamino-benzthiazole-dihydrochloride]","agonist-induced erectile activity with concomitant L-741,626 and SB-277,011",telemetry rats,abolishes all pramipexole-induced erectile activity
same,No of erectogenic events/15 min,telemetry rats; Pramipexole 0.1 μg/kg s.c.,2.8 ± 0.2 n = 5 erectogenic events/15 min
same,proerectile effect (words),telemetry rats,induces a proerectile effect
same,proerectile effect (words),telemetry rats; listed as pramipexole,induce/enhance proerectile effects
same,EC50,dopamine D3 receptor,0.62 nM
CCCN(CCC)C1CCc2ccc(O)cc2C1 (stereo not shown) [Example 7-OH-DPAT],"agonist-induced erectile activity with concomitant L-741,626 and SB-277,011",telemetry rats,abolishes all 7-OH-DPAT-induced erectile activity
same,proerectile effect (words),telemetry rats,induce/enhance proerectile effects
same,"emetic response, total retches and vomits (mean±s.e.m.)","ferrets; 0.1 mg/kg s.c., observed for 6 h, control animals",78.0±9.0
"CCCN1CCOC(c2ccc(F)c(O)c2)C1 (single isomer, unassigned) [Example 23a, R-(+)-2-Fluoro-5-(4-propylmorpholin-2-yl)phenol]",EC50,[3],> 5000 nM
CCCN1CCO[C@H]2c3cc(C(N)=O)ccc3CC[C@@H]21 [Example S32504],penile intracavernosal pressure and cavernosal blood flow in male rabbits,New Zealand rabbits,beneficially enhances
same,vaginal and clitoral blood flow in female rabbits,New Zealand rabbits,beneficially enhances
same,selectivity for D3 receptors over D2 receptors,[9],251 fold
CCCN(CCC)CCc1cccc2c1CC(=O)N2 [Ropinirole],binding D2,D2 [10],1380 nM
same,binding D3,D3,69 nM
same,EC50,[3],16.1 nM
